Laboratory results taken from patent US12138240B2, “Treatment of cardiac dysfunction” (priority 2017, dated 2024).
Entries after “also recorded” stand apart in the source; their conditions may differ. Read-outs that look alike come from different tables or passages of the source. Each block holds one compound with its values, some of them ahead of it.

How the values were obtained:
[1] = phase I single ascending dose study, plasma concentrations of ANAVEX 2-73 and metabolite ANAVEX 19-144; assay type: in vivo, human; settings: for plasma concentration of the labelled analyte: 1 mg ANAVEX 2-73 oral dose; for concentration at 24 h / Cmax: human, plasma; for concentration at 24 h: one subject, 40 mg ANAVEX 2-73 oral, 24 hr time point, read-out: plasma concentration of the labelled analyte; for Cmax: male
Protocol: (§1) Seventeen subjects contributed ECG data to the analysis dataset. The study was randomized single dose escalating phase I first-in-human study designed to investigate the safety and tolerability, and pharmacokinetics of ascending oral doses of ANAVEX 2-73 in male healthy subjects. It was double-blind and placebo-controlled within each dosage step—a two cohort study with alternating single dose escalation performed in male healthy subjects. Subjects were administered 10, 30, 40, 50, or 60 mg of ANAVEX 2-73 orally with a 4-week washout between doses. Sampling for drug and ECG was from predose to 48 hr. Note that Placebo-adjusted (delta-delta) change in QTcF is represented as ΔΔQTcF.
Blood samples for ANAVEX 2-73 and metabolite ANAVEX 19-144 plasma concentration determination were drawn on Day 1 at time zero, T0, (before drug administration), T+0.25 h (15 min), T+0.5 h (30 min), T+1 h, T+1.5 h, T+2 h, T+3 h, T+3.5 h, T+4 h, T+6 h, T+8 h and T+12 h, on Day 2 at T+24 h and T+36 h, and on Day 3 at T+48 h.
The PK variables employed in the analysis were the patient-, regimen- and time-specific observed plasma concentration of ANAVEX 2-73 and ANAVEX 19-144.
The dataset comprised observed ANAVEX 2-73 and ANAVEX 19-144 plasma concentrations that were direct matches in time with QT interval measurements. The analysis variable of interest was the QT interval duration corrected for RR interval duration according to Fridericia's formula (i.e., QTcF), HR, and change from baseline QT interval duration corrected for RR interval duration according to Fridericia's formula (ΔQTcF or dQTcF). Baseline is defined as the mean of any and all values immediately obtained prior to ANAVEX 2-73 administration.

[2] = tested on: male healthy subjects; design: species or system human; settings: in vivo
Protocol: as §1
Subjects provided time-matched exposure-ECG data for analysis. For the exposure-QTc analysis, data obtained after the administration of doses greater than 1 mg were used. […] However, ECG data from the administration of the 1 mg dose were included in the categorical and outlier analysis.
(§2) Data analysis proceeded from data structure analysis in S-PLUS to linear/nonlinear mixed effects modeling in NONMEM to develop the exposure-QTc relationship for ANAVEX 2-73 and its active metabolite ANAVEX 19-144. The correction method used for QT interval was the Fridericia's correction. The bootstrap was used to determine the reliability/stability of the exposure-QTc models developed. This was necessary to determine if the modeling results obtained with data from the 17 subjects would be applicable to the population at large, given the sample size. Exposure-heart rate and exposure-change from baseline QTc, and exposure-placebo corrected QTc relationship models were developed for the elucidation of any exposure-QTc relationship.
In addition, categorical summaries of the ECG data were generated using the ICH E14 guidance-defined categories of QTc interval duration as well as change from baseline.
A protocol presented herein was a single ascending dose (SAD) phase I first-in-human study designed to investigate the safety and tolerability, and pharmacokinetics of ascending oral doses of ANAVEX 2-73 in male healthy subjects. The study was a randomized, double-blind, and placebo-controlled within each dosage step. It was a two cohort study with alternating single dose escalation performed in male healthy subjects. The subjects were divided into two cohorts of 8 subjects each—Cohort A (n=8), and Cohort B (n=8). However, 17 evaluable subjects were studied in a 8:9 ratio in cohorts A and B, respectively. The study comprised repeated treatment periods with at least 4 weeks of intermediary washout periods.
Per study protocol, triplicate 12-lead ECGs safety recordings were obtained at the following times: Day 1 at T0/pre-dose (3 baseline ECGs), T+0.25 h (15 min), T+0.5 h (30 min), T+1 h, T+2 h, T+4 h, T+8 h and T+12 h, on Day 2 at T+24 h, T+36 h, and on Day 3 at T+48 h. ECGs were recorded at each PK sampling time (i.e., 0.25, 0.5, 1, 2, 3, 4, 6, 8, 24, 36, and 48 hours after initiation of treatment). Thus, ECG recordings were time-matched with PK sampling.
ECG metrics evaluated included the heart rate (HR), the duration of QT interval, and the heart rate-corrected QT interval according to Fridericia's formula (QTcF). Change of QTcF from baseline (dQTcF), and placebo corrected QTcF (ΔΔQTcF) were generated from the data and used for the analysis.
Baseline ECG was defined as pre-dose baseline on each dosing occasion. Given the four weeks washout between dosing, the pre-dose baseline ECG was used as the baseline ECG for the particular dose/dosing occasion. A change from baseline variable for QTc interval (ΔQTcF) was calculated using pre-dose baseline.
ΔΔQTcF data was a single dose ascending study. As such not all subjects were administered placebo in each of the study periods. Only nine subjects were administered placebo in the course of the study. Consequently, it was not possible to make subject specific placebo correction. […]

[3] = tested on: male healthy subjects; assay: linear exposure-heart rate model (NONMEM); design: species or system human
Excerpt: as §2
Concentration-QTc modeling was performed with the software NONMEM v7.3 (Icon Development Solutions, Ellicott City, MD) and graphical analysis, diagnostics plots, and supporting analyses using S Plus v8.2 (TIBCO Software, Boston, MA) and the R package.
Further modeling characterizes the exposure-heart rate relationship. […] for the model were ANAVEX 2-73 and ANAVEX 19-144 concentrations, and time. The baseline heart rate was also estimated. The best model developed to explain the exposure-heart rate relationship included all three variables. Again, ANAVEX 2-73 concentration by itself was not initially biologically QT active, but became active as metabolized to A19-144 in the model. At about 4 to 8 hours post administration A19-144 peaks and surpasses A2-73 at about 8 hours post administration. […] The metabolism of A2-73 to A19-144 modifies this effect. […] It is important to note the upward and negative inflexions in the parent compound and the active metabolite in the final model, respectively, are not indicative of model misspecification but are due to the sensitivity of smoothing loess regression (red line in FIG. 17) to outlying observations in the y-axis. The final model is given below: HRij=56.5−0.106*Parent+0.369*Metabolite+0.153*Time where HRij is subject specific heart rate, Parent refers to ANAVEX 2-73, and Metabolite is for ANAVEX 19-144.
Observed and unlikely to be observed concentrations of the parent drug and metabolite are used to predict heart rate, given the parameter estimates obtained with the exposure-heart rate model developed. […] Thus, the heart rate upon treatment with ANAVEX 2-73 is predicted to be below 75 beats/min.

concentration at 24 h [1]: 2.23 ng/mL
effect on dQTcF (exposure-dQTcF characterization) [2]: did not show any effect
Compound: CN(C)CC1CCOC1(c1ccccc1)c1ccccc1.Cl (centres unmarked) [ANAVEX 2-73, 1-(2,2-diphenyltetrahydrofuran-3-yl)-N,N-dimethylmethanamine hydrochloride]
plasma concentration of the labelled analyte [1]: not quantifiable at most of the sampling times beyond two to four hours after dosing
Cmax ([1]; oral, footnote a, read-out: ANAVEX 2-73 Concentration, observed Cmax from the QTc analysis dataset): 46.2 ng/mL
QT interval prolongation [2]: does not prolong QT interval
graphical relationship of paired concentrations with QTcF measurements [2]: minimal positive trend
relationship with ΔΔQTcF (placebo-adjusted change in QTcF) [2]: no relationship
dQTcF (change in QTcF from baseline), any subject ([2]; male, human): ≤ 30 ms
Slope on parent, exposure-heart rate model estimate [3]: −0.106 beats/min/ng/mL
initial effects on heart rate [3]: opposite initial effects on heart rate

Compound: CNCC1CCOC1(c1ccccc1)c1ccccc1.Cl (centres unmarked) [ANAVEX 19-144, 1-(2,2-diphenyltetrahydrofuran-3-yl)-N-methylmethanamine hydrochloride]
plasma concentration of the labelled analyte ([1]; hydrochloride): below the limit of detection; also recorded: not quantifiable
ANAVEX 19-144 Concentration, observed Cmax from the QTc analysis dataset ([1]; footnote a, after oral ANAVEX 2-73, hydrochloride): 23.96 ^a ng/mL
concentration at 24 h [1]: 3.33 ng/mL
Cmax ([1]; footnote a, after oral ANAVEX 2-73, read-out: ANAVEX 19-144 Concentration, observed Cmax from the QTc analysis dataset): 24 ng/mL
anti-arrhythmic activity [2]: anti-arrhythmic
effect on dQTcF (exposure-dQTcF characterization) [2]: did not show any effect
graphical relationship of paired concentrations with QTcF measurements [2]: slight minimal upward trend from baseline followed by a slight negative trend
relationship with ΔΔQTcF (placebo-adjusted change in QTcF) [2]: no relationship
Slope on metabolite, exposure-heart rate model estimate [3]: 0.369 beats/min/ng/mL
initial effects on heart rate [3]: opposite initial effects on heart rate
